In patent publication US20210017569A1, “Ligase Screening Assay” (UNIVERSITY OF DUNDEE, priority 2018, published 2021):
Blank lines part the entries; values can stand above or below the molecule they belong to.

What was measured:
Format in all cases: biochemical
GST-MYCBP2 = target: T1, GST-MYCBP2 (Homo sapiens, UniProt O75592); test: Multiple turnover amino acid and peptide panel discharge assays; settings: for function as proxy substrate (hydroxy probe) of MYCBP2: tested herein as proxy substrates; for discharge activity / Ub modification in amino acid panel: amino acid nucleophile, UBE2D3~Ub, MYCBP2cat
T1 construct: GST-tagged MYCBP2cat (Ser4378-Phe4640), wt and mutants, were expressed at 16° C. overnight; made in house; host or cells: E. coli BL21-DE3
T1 sequence (O75592 4416-4678 limits assumed): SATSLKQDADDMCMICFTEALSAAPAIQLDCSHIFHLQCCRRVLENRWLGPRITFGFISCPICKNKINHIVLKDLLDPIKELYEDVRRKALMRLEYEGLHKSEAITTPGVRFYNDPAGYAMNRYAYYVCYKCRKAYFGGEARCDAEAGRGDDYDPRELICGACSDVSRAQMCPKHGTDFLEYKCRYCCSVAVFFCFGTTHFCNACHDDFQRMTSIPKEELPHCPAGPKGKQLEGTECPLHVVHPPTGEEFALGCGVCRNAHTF
Experimental: Stock solutions (0.5 M) of amino acids were dissolved in MQ water and pH was adjusted to pH ˜8. Peptides of the sequence Ac-EGXGN-NH2 (X=K, S or T) were obtained from Bio-Synthesis Inc. Stock peptide solutions (200 mM) were dissolved in MQ water and pH was adjusted to pH ˜8. An E2 (UBE2D3) charging reaction was carried out in buffer (40 mM Na2HPO4—HCl pH 8.0, 150 mM NaCl, 0.5 mM TCEP) containing UBE1 (250-500 nM), UBE2D3 (20 μM), Ub (50 μM), or Cy3B-Ub (25 μM), MgCl2 (5 mM) and ATP 10 (mM). The reaction was incubated at 37° C. for 15 minutes and then equilibrated to 23° C. for 3 minutes. An equivalent volume of nucleophile sample containing small molecule/peptide nucleophile (100 mM) and GST-MYCBP2 (10 μM) was then added and incubated at 23° C. Samples were taken at the specified time points and analyzed as described for Tris/glycerol-mediated E2 discharge assay.
Cy3B-Ub was visualized using a Chemidoc Gel Imaging System (Biorad). LC-MS was carried out as described for Tris/glycerol discharge but amino acid substrate samples were quenched by the addition of 2:1 parts quenching solution (75% acetonitrile, 2% TFA) and peptide substrate samples were quenched by addition of 1:1 parts quenching solution.

MYCBP2 = target: T2, MYCBP2 (Homo sapiens, UniProt O75592); test: Tris/glycerol-mediated E2 discharge assay with LC-MS analysis; settings: Tris 50 mM and glycerol ~65 mM in assay buffer
T2 construct: GST-tagged MYCBP2cat (Ser4378-Phe4640), wt and mutants, were expressed at 16° C. overnight; GST (N); made in house; host or cells: E. coli BL21-DE3
T2 sequence (O75592 4416-4678 limits assumed): T1 sequence (O75592 4416-4678 limits assumed)
Experimental: Assays were carried out in buffer (50 mM Tris-HCl pH 7.5, 150 mM NaCl, 0.5 mM TCEP, 5 mM MgCl2) containing the indicated MYCBP2 mutant (15 μM), UBE1 (1.5 μM), UBE2D3 (15 μM), Ub (37 μM) and ATP (10 mM). The reactions were incubated at 37° C. for 30 minutes. Reactions were terminated by the addition of 4×LDS loading buffer (with and without ˜680 mM 2-mercaptoethanol). A C4572S sample was further incubated with 0.14 N NaOH at 37° C. for 20 minutes and samples were resolved by SDS-PAGE (4-12% NuPage gel) and visualized by Coomassie staining.
Reactions were prepared as described for discharge assay. After 30 minutes, the reaction was analyzed using an Agilent 1200/6130 LC-MS system (Agilent Technologies) using a 10-75% gradient over 20 minutes (buffer A=H2O+0.05% TFA, buffer B=acetonitrile+0.04% TFA).

MYCBP2cat = target: T3, MYCBP2cat (Homo sapiens, UniProt O75592); test: NMNAT2 ubiquitination assay; settings: base lability and thiol resistance test
T3 construct: GST-tagged MYCBP2cat (Ser4378-Phe4640), wt and mutants, were expressed at 16° C. overnight; GST (N, cleaved yes); made in house; host or cells: E. coli BL21-DE3
T3 sequence (O75592 4416-4678 limits assumed): T1 sequence (O75592 4416-4678 limits assumed)
Experimental: NMNAT2 (5 μM) was mixed with E1 (500 nM), UBE2D3 (10 μM), MYCBP2cat (10 μM), Ub (50 μM), ATP (10 mM) and made up with 10×pH 7.5 buffer (40 mM Na2H2PO4 pH 7.5, 150 mM NaCl, 5 mM MgCl2, 0.5 mM TCEP). The reactions were incubated at 37° C. for 1 hour and terminated by the addition of 4×LDS loading buffer (either non-reducing or reducing). For base lability test, reactions were supplemented with 0.14 N NaOH and then further incubated at 37° C. for 20 minutes.

GST-MYCBP2cat = target: T4, GST-MYCBP2cat (Homo sapiens, UniProt O75592); test: Multiple turnover E2 discharge panel (threonine discharge); settings: 17 E2s tested
T4 construct: GST-tagged MYCBP2cat (Ser4378-Phe4640), wt and mutants, were expressed at 16° C. overnight; made in house; host or cells: E. coli BL21-DE3
T4 sequence (O75592 4416-4678 limits assumed): T1 sequence (O75592 4416-4678 limits assumed)
Experimental: E2s were screened for threonine discharge activity with GST-MYCBP2cat as described for the amino acid panel. E2s were also incubated in the presence of threonine but in the absence of GST-MYCBP2cat. These samples provided a reference to distinguish between intrinsic E2˜Ub instability and E3-dependent discharge.

- function as proxy substrate (hydroxy probe) of MYCBP2 (GST-MYCBP2): functional
Molecule: N[C@@H](CO)C(=O)O [serine]

- discharge activity / Ub modification in amino acid panel (GST-MYCBP2): strikingly enhanced
- selectivity for threonine over serine (GST-MYCBP2; amino acid substrates, MS-based quantification of Ub esterification): ~10 fold
- Threonine selectivity in a peptide context (GST-MYCBP2; peptides Ac-EGXGN-NH2 (X=K, S or T)): 3 fold
- function as proxy substrate (hydroxy probe) of MYCBP2 (GST-MYCBP2): functional
Molecule: C[C@@H](O)[C@H](N)C(=O)O [threonine]

- function as proxy substrate (hydroxy probe) of MYCBP2 (GST-MYCBP2): functional
- conversion of Ub into condensation product with nucleophile (MYCBP2): quantitatively converted
Molecule: tris(hydroxymethyl)aminomethane

Second part, the molecule before the results:

Molecule: O=S(=O)(O)CCN1CCN(CCO)CC1 [HEPES, 4-(2-hydroxyethyl)-1-piperazineethanesulfonic acid]
- function as proxy substrate (hydroxy probe) of MYCBP2 (GST-MYCBP2): functional

Molecule: OCC(O)CO [glycerol]
- function as proxy substrate (hydroxy probe) of MYCBP2 (GST-MYCBP2): functional
- conversion of Ub into condensation product with nucleophile (MYCBP2): quantitatively converted

Molecule: NCCCC[C@H](N)C(=O)O [lysine]
- discharge activity / Ub modification in amino acid panel (GST-MYCBP2): low level

Molecule: NMNAT2: Nicotinamide Mononucleotide Adenyltransferase, putative MYCBP2 substrate
- ubiquitination by MYCBP2cat in vitro (MYCBP2cat): hydroxide labile but thiol resistant ubiquitination

Molecule: UBE2D1: E2 conjugating enzyme
- E2 partner activity with MYCBP2cat (GST-MYCBP2cat): robust activity

Molecule: UBE2D3: E2 conjugating enzyme, N-terminally 6His-tagged recombinant protein
- E2 partner activity with MYCBP2cat (GST-MYCBP2cat): robust activity
